{"source": "patent US11304907B2", "about": "“Pharmaceutical compositions containing a DGAT1 inhibitor” (Novartis AG, priority 2010, dated 2022)", "key": {"[1]": {"assay": "Disintegrant compatibility / stress storage", "format": "physicochemical", "settings": "due to the presence of residual formaldehyde", "description": "It can be seen from the above table that core tablets formulated with Cross linked polyvinyl pyrollidone (PVP-XL) show a slower release compared to the Sodium Starch Glycollate (SSG), and Croscarmellose Sodium (Ac-Di-Sol) based formulations. […] Formulations containing Croscarmellose Sodium (Ac-Di-Sol) were also found to turn to yellow when prepared and exposed to 50° C. dry as well as 50° C./75% […] humidity for 4 weeks."}, "[2]": {"assay": "Physicochemical properties of the drug substance", "from_the_text": "However, the compound of formula (I), or a pharmaceutically acceptable salt thereof, in particular the sodium salt thereof, is a drug substance which is difficult to formulate due to its physicochemical properties. […] It is also plate like, very fluffy, and sticky in nature."}}, "note": "Where a name gives a salt, the structure may show the parent alone."}
{"smiles": "O=C(O)C[C@H]1CC[C@H](c2ccc(-c3ccc(Nc4ccc(C(F)(F)F)nc4)cn3)cc2)CC1", "note": "[compound of formula (II), trans-(4-{4-[5-(6-Trifluoromethyl-pyridin-3-ylamino)-pyridin-2-yl]-phenyl}-cyclohexyl)-acetic acid, sodium salt]", "values": [{"measurement": "compatibility with Cross linked polyvinyl pyrollidone (PVP-XL)", "setting": "[1]", "result": "incompatible"}, {"measurement": "moisture uptake", "setting": "[2]; at 95% relative humidity", "result": "high moisture uptake"}, {"measurement": "hygroscopicity", "setting": "[2]; drug substance, sodium salt", "result": "hygroscopic"}, {"measurement": "solubility", "setting": "[2]; drug substance, sodium salt", "result": "poorly soluble"}]}
